Measured values from patent US10501461B2, “Tyrosine amide derivatives as Rho-kinase inhibitors” (CHIESI FARMACEUTICI S.P.A., priority 2017, dated 2019).
pKi: −log10 of the molar value.

Columns and labels:
[1] = biological target: Rho kinase 1 (ROCK-I) (Homo sapiens, UniProt Q13464); experiment: In vitro Rho kinase inhibitory activity assay (ADP-Glo), Rho kinase 1; assay type: biochemical; conditions: 10 μM ATP, 25° C., expressed as range of activity
In short: (§1)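 Each kinase (ROCK1 or ROCK2) sat with compound for 30 min at 25 °C before 10 μM ATP started a 1 h reaction on 2.5 μM myelin basic protein (Tris pH 7.5, MgCl2, BSA, DTT, 1% DMSO). ADP formed was read by ADP-Glo luminescence. Dose-response IC50s were converted to Ki by Cheng-Prusoff.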

[2] = biological target: Rho kinase 2 (ROCK-II) (Homo sapiens, UniProt O75116); experiment: In vitro Rho kinase inhibitory activity assay (ADP-Glo), Rho kinase 2; assay type: biochemical; conditions: 10 μM ATP, 25° C., expressed as range of activity
Chain of Rho kinase 2 (ROCK-II) (O75116 whole entry): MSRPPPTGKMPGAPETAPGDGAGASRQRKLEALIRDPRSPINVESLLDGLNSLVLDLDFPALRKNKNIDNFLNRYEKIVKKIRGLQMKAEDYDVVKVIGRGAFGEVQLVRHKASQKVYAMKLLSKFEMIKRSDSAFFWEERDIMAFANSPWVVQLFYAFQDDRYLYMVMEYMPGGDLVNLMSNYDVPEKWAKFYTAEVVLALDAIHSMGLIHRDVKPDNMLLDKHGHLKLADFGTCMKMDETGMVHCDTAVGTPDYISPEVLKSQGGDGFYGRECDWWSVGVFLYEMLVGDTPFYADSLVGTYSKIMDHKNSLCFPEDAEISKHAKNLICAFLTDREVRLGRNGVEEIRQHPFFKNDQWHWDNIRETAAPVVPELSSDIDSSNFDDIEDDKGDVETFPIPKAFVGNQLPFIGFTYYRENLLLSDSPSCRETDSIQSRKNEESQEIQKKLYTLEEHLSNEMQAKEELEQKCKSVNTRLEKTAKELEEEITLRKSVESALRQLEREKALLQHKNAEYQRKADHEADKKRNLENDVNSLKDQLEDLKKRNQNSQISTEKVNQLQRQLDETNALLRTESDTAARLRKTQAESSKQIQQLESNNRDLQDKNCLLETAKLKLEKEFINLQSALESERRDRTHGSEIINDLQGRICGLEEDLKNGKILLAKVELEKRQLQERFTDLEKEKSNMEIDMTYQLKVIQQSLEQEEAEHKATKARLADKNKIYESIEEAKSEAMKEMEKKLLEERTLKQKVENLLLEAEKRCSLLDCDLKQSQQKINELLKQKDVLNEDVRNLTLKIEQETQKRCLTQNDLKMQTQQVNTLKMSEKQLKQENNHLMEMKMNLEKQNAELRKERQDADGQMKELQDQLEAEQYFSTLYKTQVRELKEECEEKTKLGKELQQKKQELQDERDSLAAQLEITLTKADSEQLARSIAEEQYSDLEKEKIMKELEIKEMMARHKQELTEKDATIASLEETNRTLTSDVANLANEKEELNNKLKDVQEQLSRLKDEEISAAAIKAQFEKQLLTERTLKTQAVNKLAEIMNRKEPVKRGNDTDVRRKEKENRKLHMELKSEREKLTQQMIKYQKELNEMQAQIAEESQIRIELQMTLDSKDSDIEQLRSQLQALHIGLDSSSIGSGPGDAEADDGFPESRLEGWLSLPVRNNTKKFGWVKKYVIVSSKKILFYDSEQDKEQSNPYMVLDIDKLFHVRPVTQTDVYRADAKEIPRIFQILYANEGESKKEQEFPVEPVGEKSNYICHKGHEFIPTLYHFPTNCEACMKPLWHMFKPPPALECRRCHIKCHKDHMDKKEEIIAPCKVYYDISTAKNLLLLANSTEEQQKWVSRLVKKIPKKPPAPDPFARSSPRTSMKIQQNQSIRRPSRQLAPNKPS
In short: as §1

Chain of Rho kinase 1 (ROCK-I) (Q13464 whole entry): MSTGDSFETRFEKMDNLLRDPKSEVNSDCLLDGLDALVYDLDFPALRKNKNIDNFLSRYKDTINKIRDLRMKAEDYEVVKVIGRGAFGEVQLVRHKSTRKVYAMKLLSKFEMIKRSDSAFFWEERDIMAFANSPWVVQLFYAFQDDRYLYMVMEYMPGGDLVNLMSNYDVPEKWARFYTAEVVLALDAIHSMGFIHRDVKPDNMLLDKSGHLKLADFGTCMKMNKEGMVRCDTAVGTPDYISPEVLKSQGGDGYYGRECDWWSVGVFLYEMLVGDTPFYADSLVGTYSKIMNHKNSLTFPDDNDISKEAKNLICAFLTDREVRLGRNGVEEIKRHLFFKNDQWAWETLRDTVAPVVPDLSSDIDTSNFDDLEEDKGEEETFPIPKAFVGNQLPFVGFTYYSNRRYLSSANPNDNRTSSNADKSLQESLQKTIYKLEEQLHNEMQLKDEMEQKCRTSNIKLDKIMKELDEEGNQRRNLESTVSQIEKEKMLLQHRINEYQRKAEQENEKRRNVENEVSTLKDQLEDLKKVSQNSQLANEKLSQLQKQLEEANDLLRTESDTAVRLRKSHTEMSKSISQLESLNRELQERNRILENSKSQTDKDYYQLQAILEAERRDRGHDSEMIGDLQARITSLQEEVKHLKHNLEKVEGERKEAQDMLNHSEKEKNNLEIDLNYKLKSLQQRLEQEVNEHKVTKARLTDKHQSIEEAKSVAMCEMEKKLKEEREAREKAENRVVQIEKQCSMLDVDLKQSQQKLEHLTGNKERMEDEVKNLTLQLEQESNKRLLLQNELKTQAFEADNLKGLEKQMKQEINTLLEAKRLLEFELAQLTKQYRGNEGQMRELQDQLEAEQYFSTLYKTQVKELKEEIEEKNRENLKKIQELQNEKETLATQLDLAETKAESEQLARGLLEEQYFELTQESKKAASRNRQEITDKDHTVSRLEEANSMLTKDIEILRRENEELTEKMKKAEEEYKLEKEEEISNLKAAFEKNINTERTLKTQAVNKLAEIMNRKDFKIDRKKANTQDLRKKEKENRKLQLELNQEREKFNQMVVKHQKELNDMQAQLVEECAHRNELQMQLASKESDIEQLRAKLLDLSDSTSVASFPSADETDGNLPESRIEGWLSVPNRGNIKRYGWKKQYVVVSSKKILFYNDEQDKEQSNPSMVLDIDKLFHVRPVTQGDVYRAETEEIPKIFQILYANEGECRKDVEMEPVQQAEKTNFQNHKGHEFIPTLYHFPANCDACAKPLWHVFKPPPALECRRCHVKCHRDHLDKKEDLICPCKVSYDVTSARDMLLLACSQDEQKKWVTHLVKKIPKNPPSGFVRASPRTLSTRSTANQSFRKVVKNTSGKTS

| SMILES | pKi [1] | pKi [2] |
| --- | --- | --- |
| Cc1c[nH]c2nccc(Oc3ccc(CC(N)C(=O)N4CCN(Cc5ccncc5)CC4)cc3F)c12 (stereo not shown) [Example 51, 2-amino-3-(3-fluoro-4-((3-methyl-1H-pyrrolo[2,3-b]pyridin-4-yl)oxy)phenyl)-1-(4-(pyridin-4-ylmethyl)piperazin-1-yl)propan-1-one] | > 8.52 | > 8.52 |
| Cc1c[nH]c2nccc(Oc3ccc(CC(N)C(=O)N4CCN(Cc5ccc6c(c5)OCO6)CC4)cc3F)c12 (stereo not shown) [Example 52, 2-amino-1-(4-(benzo[d][1,3]dioxol-5-ylmethyl)piperazin-1-yl)-3-(3-fluoro-4-((3-methyl-1H-pyrrolo[2,3-b]pyridin-4-yl)oxy)phenyl)propan-1-one] | > 8.52 | > 8.52 |
| Cc1c[nH]c2nccc(Oc3ccc(CC(N)C(=O)N4CCN(CCc5ccccc5)CC4)cc3F)c12 (stereo not shown) [Example 53, 2-amino-3-(3-fluoro-4-((3-methyl-1H-pyrrolo[2,3-b]pyridin-4-yl)oxy)phenyl)-1-(4-phenethylpiperazin-1-yl)propan-1-one] | > 8.52 | > 8.52 |
| Cc1c[nH]c2nccc(Oc3ccc(C[C@H](N)C(=O)NC4CCOCC4)cc3F)c12 [Example 54, (S)-2-amino-3-(3-fluoro-4-((3-methyl-1H-pyrrolo[2,3-b]pyridin-4-yl)oxy)phenyl)-N-(tetrahydro-2H-pyran-4-yl)propanamide] | > 8.52 | > 8.52 |
| Cc1c[nH]c2nccc(Oc3ccc(C[C@@H](N)C(=O)NC4CCOCC4)cc3F)c12 [Example 55, (R)-2-amino-3-(3-fluoro-4-((3-methyl-1H-pyrrolo[2,3-b]pyridin-4-yl)oxy)phenyl)-N-(tetrahydro-2H-pyran-4-yl)propanamide] | 7.52 to 8.52 | 7.52 to 8.52 |
| Cc1c[nH]c2nccc(Oc3ccc(C[C@H](N)C(=O)NCCc4cnn(-c5ccccc5)c4)cc3F)c12 [Example 56, (S)-2-amino-3-(3-fluoro-4-((3-methyl-1H-pyrrolo[2,3-b]pyridin-4-yl)oxy)phenyl)-N-(2-(1-phenyl-1H-pyrazol-4-yl)ethyl)propanamide] | > 8.52 | > 8.52 |
| Cc1c[nH]c2nccc(Oc3ccc(CC(N)C(=O)NCCc4ccncc4)cc3F)c12 (stereo not shown) [Example 57, 2-amino-3-(3-fluoro-4-((3-methyl-1H-pyrrolo[2,3-b]pyridin-4-yl)oxy)phenyl)-N-(2-(pyridin-4-yl)ethyl)propanamide] | > 8.52 | > 8.52 |
| Cc1c[nH]c2nccc(Oc3ccc(CC(N)C(=O)N4CCN(CC5CC5)CC4)cc3F)c12 (stereo not shown) [Example 58, 2-amino-1-(4-(cyclopropylmethyl)piperazin-1-yl)-3-(3-fluoro-4-((3-methyl-1H-pyrrolo[2,3-b]pyridin-4-yl)oxy)phenyl)propan-1-one] | > 8.52 | > 8.52 |
| Cc1c[nH]c2nccc(Oc3ccc(CC(N)C(=O)N4CCN(C)CC4)cc3F)c12 (stereo not shown) [Example 59, 2-amino-3-(3-fluoro-4-((3-methyl-1H-pyrrolo[2,3-b]pyridin-4-yl)oxy)phenyl)-1-(4-methylpiperazin-1-yl)propan-1-one] | > 8.52 | > 8.52 |
| Cc1c[nH]c2nccc(Oc3ccc(CC(N)C(=O)N4CCN(C5CC5)CC4)cc3F)c12 (stereo not shown) [Example 60, 2-amino-1-(4-cyclopropylpiperazin-1-yl)-3-(3-fluoro-4-((3-methyl-1H-pyrrolo[2,3-b]pyridin-4-yl)oxy)phenyl)propan-1-one] | > 8.52 | > 8.52 |
| Cc1c[nH]c2nccc(Oc3ccc(CC(N)C(=O)NCc4cccs4)cc3F)c12 (stereo not shown) [Example 61, 2-amino-3-(3-fluoro-4-((3-methyl-1H-pyrrolo[2,3-b]pyridin-4-yl)oxy)phenyl)-N-(thiophen-2-ylmethyl)propanamide] | > 8.52 | > 8.52 |
| Cc1c[nH]c2nccc(Oc3ccc(CC(N)C(=O)NCc4ccc(CO)cc4)cc3F)c12 (stereo not shown) [Example 62, 2-amino-3-(3-fluoro-4-((3-methyl-1H-pyrrolo[2,3-b]pyridin-4-yl)oxy)phenyl)-N-(4-(hydroxymethyl)benzyl)propanamide] | > 8.52 | > 8.52 |
| Cc1c[nH]c2nccc(Oc3ccc(CC(N)C(=O)NC4Cc5ccccc5C4)cc3F)c12 (stereo not shown) [Example 63, 2-amino-N-(2,3-dihydro-1H-inden-2-yl)-3-(3-fluoro-4-((3-methyl-1H-pyrrolo[2,3-b]pyridin-4-yl)oxy)phenyl)propanamide] | > 8.52 | > 8.52 |
| Cc1c[nH]c2nccc(Oc3ccc(CC(N)C(=O)N4CCN(C)CC4CO)cc3F)c12 (stereo not shown) [Example 64, 2-amino-3-(3-fluoro-4-((3-methyl-1H-pyrrolo[2,3-b]pyridin-4-yl)oxy)phenyl)-1-(2-(hydroxymethyl)-4-methylpiperazin-1-yl)propan-1-one] | 7.52 to 8.52 | > 8.52 |
| Cc1c[nH]c2nccc(Oc3ccc(CC(N)C(=O)N4Cc5ccncc5C4)cc3F)c12 (stereo not shown) [Example 65, 2-amino-3-(3-fluoro-4-((3-methyl-1H-pyrrolo[2,3-b]pyridin-4-yl)oxy)phenyl)-1-(1H-pyrrolo[3,4-c]pyridin-2(3H)-yl)propan-1-one] | > 8.52 | > 8.52 |
| Cc1c[nH]c2nccc(Oc3ccc(CC(N)C(=O)N4CCc5ccncc5C4)cc3F)c12 (stereo not shown) [Example 67, 2-amino-1-(3,4-dihydro-2,7-naphthyridin-2(1H)-yl)-3-(3-fluoro-4-((3-methyl-1H-pyrrolo[2,3-b]pyridin-4-yl)oxy)phenyl)propan-1-one] | > 8.52 | > 8.52 |
| COCCCNC(=O)C(N)Cc1ccc(Oc2ccnc3[nH]cc(C)c23)c(F)c1 (stereo not shown) [Example 68, 2-amino-3-(3-fluoro-4-((3-methyl-1H-pyrrolo[2,3-b]pyridin-4-yl)oxy)phenyl)-N-(3-methoxypropyl)propanamide] | > 8.52 | > 8.52 |
| Cc1c[nH]c2nccc(Oc3ccc(CC(N)C(=O)NCCc4ccccn4)cc3F)c12 (stereo not shown) [Example 69, 2-amino-3-(3-fluoro-4-((3-methyl-1H-pyrrolo[2,3-b]pyridin-4-yl)oxy)phenyl)-N-(2-(pyridin-2-yl)ethyl)propanamide] | > 8.52 | > 8.52 |
| Cc1c[nH]c2nccc(Oc3ccc(CC(N)C(=O)Nc4cccnc4)cc3F)c12 (stereo not shown) [Example 70, 2-amino-3-(3-fluoro-4-((3-methyl-1H-pyrrolo[2,3-b]pyridin-4-yl)oxy)phenyl)-N-(pyridin-3-yl)propanamide] | > 8.52 | > 8.52 |
| Cc1c[nH]c2nccc(Oc3ccc(CC(N)C(=O)Nc4ccncc4)cc3F)c12 (stereo not shown) [Example 71, 2-amino-3-(3-fluoro-4-((3-methyl-1H-pyrrolo[2,3-b]pyridin-4-yl)oxy)phenyl)-N-(pyridin-4-yl)propanamide] | > 8.52 | > 8.52 |
| Cc1ccc(CN2CCN(C(=O)C(N)Cc3ccc(Oc4ccnc5[nH]cc(C)c45)c(F)c3)CC2)cc1 (stereo not shown) [Example 72, 2-amino-3-(3-fluoro-4-((3-methyl-1H-pyrrolo[2,3-b]pyridin-4-yl)oxy)phenyl)-1-(4-(4-methylbenzyl)piperazin-1-yl)propan-1-one] | > 8.52 | > 8.52 |
| Cc1cccc(CN2CCN(C(=O)C(N)Cc3ccc(Oc4ccnc5[nH]cc(C)c45)c(F)c3)CC2)c1 (stereo not shown) [Example 73, 2-amino-3-(3-fluoro-4-((3-methyl-1H-pyrrolo[2,3-b]pyridin-4-yl)oxy)phenyl)-1-(4-(3-methylbenzyl)piperazin-1-yl)propan-1-one] | > 8.52 | > 8.52 |
| Cc1c[nH]c2nccc(Oc3ccc(CC(N)C(=O)N4CCN(Cc5ccc(F)cc5)CC4)cc3F)c12 (stereo not shown) [Example 74, 2-amino-3-(3-fluoro-4-((3-methyl-1H-pyrrolo[2,3-b]pyridin-4-yl)oxy)phenyl)-1-(4-(4-fluorobenzyl)piperazin-1-yl)propan-1-one] | > 8.52 | > 8.52 |
| COc1ccc(CN2CCN(C(=O)C(N)Cc3ccc(Oc4ccnc5[nH]cc(C)c45)c(F)c3)CC2)cc1 (stereo not shown) [Example 75, 2-amino-3-(3-fluoro-4-((3-methyl-1H-pyrrolo[2,3-b]pyridin-4-yl)oxy)phenyl)-1-(4-(4-methoxybenzyl)piperazin-1-yl)propan-1-one] | > 8.52 | > 8.52 |
| Cc1c[nH]c2nccc(Oc3ccc(CC(N)C(=O)NCCc4ccccc4)cc3F)c12 (stereo not shown) [Example 76, 2-amino-3-(3-fluoro-4-((3-methyl-1H-pyrrolo[2,3-b]pyridin-4-yl)oxy)phenyl)-N-phenethylpropanamide] | > 8.52 | > 8.52 |
| Cc1c[nH]c2nccc(Oc3ccc(CC(N)C(=O)N4CCCCC4)cc3F)c12 (stereo not shown) [Example 77, 2-amino-3-(3-fluoro-4-((3-methyl-1H-pyrrolo[2,3-b]pyridin-4-yl)oxy)phenyl)-1-(piperidin-1-yl)propan-1-one] | > 8.52 | > 8.52 |
| Cc1c[nH]c2nccc(Oc3ccc(CC(N)C(=O)Nc4cccc5cnccc45)cc3F)c12 (stereo not shown) [Example 78, 2-amino-3-(3-fluoro-4-((3-methyl-1H-pyrrolo[2,3-b]pyridin-4-yl)oxy)phenyl)-N-(isoquinolin-5-yl)propanamide] | > 8.52 | > 8.52 |
| Cc1c[nH]c2nccc(Oc3ccc(CC(N)C(=O)NCCCN4CCOCC4)cc3F)c12 (stereo not shown) [Example 79, 2-amino-3-(3-fluoro-4-((3-methyl-1H-pyrrolo[2,3-b]pyridin-4-yl)oxy)phenyl)-N-(3-morpholinopropyl)propanamide] | > 8.52 | > 8.52 |
| Cc1c[nH]c2nccc(Oc3ccc(CC(N)C(=O)N4CCN(c5ccccn5)CC4)cc3F)c12 (stereo not shown) [Example 80, 2-amino-3-(3-fluoro-4-((3-methyl-1H-pyrrolo[2,3-b]pyridin-4-yl)oxy)phenyl)-1-(4-(pyridin-2-yl)piperazin-1-yl)propan-1-one] | > 8.52 | > 8.52 |
